According to patent US12508300B2, “Acylated GLP-1 derivative” (Sciwind Biosciences Co., Ltd., priority 2019, dated 2025):
*1 amine or outer side, *2 acyl side, *3 side chain or, on linkers, in order; H or OH if unused. Where a SMILES comes first, the peptide text is derived from it. Side-chain parts run from the residue outwards. The star is where a group is joined. C18 diacid = O=C(O)CCCCCCCCCCCCCCCCC(=O)*; γGlu = O=C(O)[C@H](CCC(=O)[*:2])N[*:1]; AEEA = NCCOCCOCC(=O)O

Key:
GLP1R = target: T1, GLP1R (Homo sapiens, UniProt P43220); test: In vitro activity determination in HEK293/CRE-Luc/GLP1R cells (luciferase reporter); assay type: cell-based
T1 construct: expressed in transfected cells; host or cells: HEK293
T1 sequence (P43220 24-463, species assumed): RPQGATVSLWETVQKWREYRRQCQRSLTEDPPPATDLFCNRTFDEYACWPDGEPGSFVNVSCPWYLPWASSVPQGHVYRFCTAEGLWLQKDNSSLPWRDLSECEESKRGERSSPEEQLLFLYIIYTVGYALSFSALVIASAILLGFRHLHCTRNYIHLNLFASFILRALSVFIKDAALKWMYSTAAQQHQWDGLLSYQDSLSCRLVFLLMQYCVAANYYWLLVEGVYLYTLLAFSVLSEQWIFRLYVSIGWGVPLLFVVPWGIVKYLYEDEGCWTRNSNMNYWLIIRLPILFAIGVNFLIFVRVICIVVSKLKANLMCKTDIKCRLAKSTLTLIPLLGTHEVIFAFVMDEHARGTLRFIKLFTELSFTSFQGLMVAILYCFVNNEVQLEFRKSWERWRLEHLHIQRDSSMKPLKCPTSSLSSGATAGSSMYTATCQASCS
Method: Based on the fact that GLP-1 may bind to the receptor on the cell membrane, the HEK293/CRE-Luc/GLPIR cell line is constructed, the CAMP response elements (CRE) are activated through a series of signal transduction, the expression of downstream luciferase is initiated, and the amount of its expression is positively correlated with the biological activity of GLP-1. After adding the luciferase substrate, the chemiluminescence assay is performed to determine the luminous intensity, thereby determining the biological activity of GLP-1.
96-well cell culture plate (white and opaque), DMEM medium (GIBCO), 0.05% TRYPSIN-EDTA (GIBCO), fetal bovine serum (GIBCO), G418, hygromycin B, Bright-Glo™ Luciferase Assay System Kit (Promega), and HEK293/CRE-luc/GLP1R cells.
(1) Cell preparation: the cells are cultured until they grow vigorously and reach a sufficient quantity, discarding the culture medium in the culture bottle, adding 3 ml of Versene solution and shaking once; then adding 2 ml of 0.05% TRYPSIN-EDTA digestion solution, covering the bottle and standing for 1 minute, and then adding 6 ml of the assay medium to quench the digestion; after centrifugation at 1000 r/min for 3 min, the supernatant is discarded, and the cells are resuspended in 5 ml of assay medium and counted on a hemacytometer. The cell density is adjusted to an appropriate range for later use by using DMEM assay medium.
(2) Sample preparation: the derivatives of different GLP-1 analogues in Table 1 are diluted to 20 ng/ml with the assay medium, then gradient diluted into 8 concentrations in 96-well plates, and using the assay medium instead of the sample as the cell blank control. 2 duplicate wells are made for each dilution concentration.
(3) Culturing with addition of the samples: the prepared solutions of the control and test samples are transferred to a 96-well cell culture plate (white board), adding 50 μl of the solution to each well; then adding the prepared cell suspension, adding 50 μl of the suspension to each well; and then incubating for a certain period of time under the conditions of 37° C. and 5% CO2.
(4) Chemiluminescence assay: substrate is added, then taking out the 96-well cell culture plate, adding 100 μl of Bright Glo reagent to each well, and leaving in the dark for 3 min.
(5) Reading: determination is performed with a chemiluminescence microplate reader SpectraMax L, then reading the plate within 30 min, and recording the determined results.

db/db mice = test: Fasting blood glucose after single injection in type II diabetic db/db mice (FIG. 1); assay type: in vivo; details: 0.05 mg/kg s.c. single
Method: The dosage is 0.05 mg/kg for each, and the administration time is set as 0 h. Fasting blood glucose is measured after fasting for 6-8 h every day, and the fasting blood glucose after administration is measured every day until the fasting blood glucose value of each animal of the test group recovers to the value measured before administration. The blood glucose value measured before administration is called the basal blood glucose value, and is set as 0. Change of the fasting blood glucose (Δ: delta)=Blood glucose value after administration-Basal blood glucose value before administration.

CC[C@H](C)[C@H](NC(=O)[C@H](Cc1ccccc1)NC(=O)[C@H](CCC(=O)O)NC(=O)[C@H](CCCNC(=N)N)NC(=O)[C@H](C)NC(=O)[C@H](C)NC(=O)[C@H](CCCCNC(=O)COCCOCCNC(=O)COCCOCCNC(=O)CC[C@H](NC(=O)CCCCCCCCCCCCCCCCC(=O)O)C(=O)O)NC(=O)[C@H](CCC(=O)O)NC(=O)[C@H](CCC(=O)O)NC(=O)[C@H](CC(C)C)NC(=O)[C@H](Cc1ccc(O)cc1)NC(=O)[C@H](CO)NC(=O)[C@H](CO)NC(=O)[C@@H](NC(=O)[C@H](CC(=O)O)NC(=O)[C@H](CO)NC(=O)[C@@H](NC(=O)[C@H](Cc1ccccc1)NC(=O)[C@@H](NC(=O)CNC(=O)[C@H](CCC(=O)O)NC(=O)[C@@H](NC(=O)[C@@H](N)Cc1c[nH]cn1)[C@@H](C)CC)[C@@H](C)O)[C@@H](C)O)C(C)C)C(=O)N[C@@H](C)C(=O)N[C@@H](Cc1c[nH]c2ccccc12)C(=O)N[C@@H](CC(C)C)C(=O)N[C@H](C(=O)N[C@@H](CCCNC(=N)N)C(=O)NCC(=O)N[C@@H](CCCNC(=N)N)C(=O)NCC(=O)O)C(C)C [M9, N-ε^23-[2-(2-[2-(2-[2-(2-[4-(17-carboxyheptadecanoylamino)-4(s)-carboxybutyrylamino]ethoxy)ethoxy]acetylamino)ethoxy]ethoxy)acetyl](Ile^8Glu^22Lys^23Arg^26,34-GLP-1 (7-37)) peptide] (H-HIEGTFTSDVSSYLEEK([AEEA-AEEA-γGlu-C18 diacid])AAREFIAWLVRGRG-OH; N-terminus and C-terminus assumed)
in vitro activities (comparison in words) (GLP1R): comparable
glucose-lowing effect compared with Semaglutide (FIG. 1) (db/db mice; day 4 and day 5): better than that of Semaglutide

CC[C@H](C)[C@H](NC(=O)[C@H](Cc1ccccc1)NC(=O)[C@H](CCC(=O)O)NC(=O)[C@H](CCCNC(=N)N)NC(=O)[C@H](C)NC(=O)[C@H](C)NC(=O)[C@H](CCCCNC(=O)COCCOCCNC(=O)COCCOCCNC(=O)CC[C@H](NC(=O)CCCCCCCCCCCCCCCCC(=O)O)C(=O)O)NC(=O)[C@H](CCC(=O)O)NC(=O)[C@H](CCC(=O)O)NC(=O)[C@H](CC(C)C)NC(=O)[C@H](Cc1ccc(O)cc1)NC(=O)[C@H](CO)NC(=O)[C@H](CO)NC(=O)[C@@H](NC(=O)[C@H](CC(=O)O)NC(=O)[C@H](CO)NC(=O)[C@@H](NC(=O)[C@H](Cc1ccccc1)NC(=O)[C@@H](NC(=O)CNC(=O)[C@H](CCC(=O)O)NC(=O)CNC(=O)[C@@H](N)Cc1c[nH]cn1)[C@@H](C)O)[C@@H](C)O)C(C)C)C(=O)N[C@@H](C)C(=O)N[C@@H](Cc1c[nH]c2ccccc12)C(=O)N[C@@H](CC(C)C)C(=O)N[C@H](C(=O)N[C@@H](CCCNC(=N)N)C(=O)NCC(=O)N[C@@H](CCCNC(=N)N)C(=O)NCC(=O)O)C(C)C [M11, N-ε^23-[2-(2-[2-(2-[2-(2-[4-(17-carboxyheptadecanoylamino)-4(s)-carboxybutyrylamino]ethoxy)ethoxy]acetylamino)ethoxy]ethoxy)acetyl](Gly^8Glu^22Lys^23Arg^26,34-GLP-1(7-37)) peptide] (H-HGEGTFTSDVSSYLEEK([AEEA-AEEA-γGlu-C18 diacid])AAREFIAWLVRGRG-OH; N-terminus and C-terminus assumed)
in vitro activities (comparison in words) (GLP1R): comparable
glucose-lowing effect compared with Semaglutide (FIG. 1) (db/db mice; day 2): lower than that of Semaglutide

CC[C@H](C)[C@H](NC(=O)[C@H](Cc1ccccc1)NC(=O)[C@H](CCC(=O)O)NC(=O)[C@H](CCCNC(=N)N)NC(=O)[C@H](C)NC(=O)[C@H](C)NC(=O)[C@H](CCC(N)=O)NC(=O)[C@H](CCC(=O)O)NC(=O)[C@H](CCC(=O)O)NC(=O)[C@H](CC(C)C)NC(=O)[C@H](Cc1ccc(O)cc1)NC(=O)[C@H](CO)NC(=O)[C@H](CO)NC(=O)[C@@H](NC(=O)[C@H](CC(=O)O)NC(=O)[C@H](CO)NC(=O)[C@@H](NC(=O)[C@H](Cc1ccccc1)NC(=O)[C@@H](NC(=O)CNC(=O)[C@H](CCC(=O)O)NC(=O)[C@@H](NC(=O)[C@@H](N)Cc1c[nH]cn1)[C@@H](C)CC)[C@@H](C)O)[C@@H](C)O)C(C)C)C(=O)N[C@@H](CCCCNC(=O)COCCOCCNC(=O)COCCOCCNC(=O)CC[C@H](NC(=O)CCCCCCCCCCCCCCCCC(=O)O)C(=O)O)C(=O)N[C@@H](Cc1c[nH]c2ccccc12)C(=O)N[C@@H](CC(C)C)C(=O)N[C@H](C(=O)N[C@@H](CCCNC(=N)N)C(=O)NCC(=O)N[C@@H](CCCNC(=N)N)C(=O)NCC(=O)O)C(C)C [M14, N-ε^30-[2-(2-[2-(2-[2-(2-[4-(17-carboxyheptadecanoylamino)-4(s)-carboxybutyrylamino]ethoxy)ethoxy]acetylamino)ethoxy]ethoxy)acetyl](Ile^8Glu^22Lys^30Arg^26,34-GLP-1(7-37)) peptide] (H-HIEGTFTSDVSSYLEEQAAREFIK([AEEA-AEEA-γGlu-C18 diacid])WLVRGRG-OH; N-terminus and C-terminus assumed)
in vitro activities (comparison in words) (GLP1R): comparable
glucose-lowing effect compared with Semaglutide (FIG. 1) (db/db mice; day 4 and day 5): better than that of Semaglutide

CC[C@H](C)[C@H](NC(=O)[C@H](Cc1ccccc1)NC(=O)[C@H](CCC(=O)O)NC(=O)[C@H](CCCNC(=N)N)NC(=O)[C@H](C)NC(=O)[C@H](C)NC(=O)[C@H](CCC(N)=O)NC(=O)[C@H](CCC(=O)O)NC(=O)[C@H](CCC(=O)O)NC(=O)[C@H](CC(C)C)NC(=O)[C@H](Cc1ccc(O)cc1)NC(=O)[C@H](CO)NC(=O)[C@H](CO)NC(=O)[C@@H](NC(=O)[C@H](CC(=O)O)NC(=O)[C@H](CO)NC(=O)[C@@H](NC(=O)[C@H](Cc1ccccc1)NC(=O)[C@@H](NC(=O)CNC(=O)[C@H](CCC(=O)O)NC(=O)CNC(=O)[C@@H](N)Cc1c[nH]cn1)[C@@H](C)O)[C@@H](C)O)C(C)C)C(=O)N[C@@H](CCCCNC(=O)COCCOCCNC(=O)COCCOCCNC(=O)CC[C@H](NC(=O)CCCCCCCCCCCCCCCCC(=O)O)C(=O)O)C(=O)N[C@@H](Cc1c[nH]c2ccccc12)C(=O)N[C@@H](CC(C)C)C(=O)N[C@H](C(=O)N[C@@H](CCCNC(=N)N)C(=O)NCC(=O)N[C@@H](CCCNC(=N)N)C(=O)NCC(=O)O)C(C)C [M16, N-ε^30-[2-(2-[2-(2-[2-(2-[4-(17-carboxyheptadecanoylamino)-4(s)-carboxybutyrylamino]ethoxy)ethoxy]acetylamino)ethoxy]ethoxy)acetyl](Gly^8Glu^22Lys^30Arg^26,34-GLP-1(7-37)) peptide] (H-HGEGTFTSDVSSYLEEQAAREFIK([AEEA-AEEA-γGlu-C18 diacid])WLVRGRG-OH; N-terminus and C-terminus assumed)
in vitro activities (comparison in words) (GLP1R): comparable
glucose-lowing effect compared with Semaglutide (FIG. 1) (db/db mice; day 2): lower than that of Semaglutide

CC[C@H](C)[C@H](NC(=O)[C@H](Cc1ccccc1)NC(=O)[C@H](CCC(=O)O)NC(=O)[C@H](CCCNC(=N)N)NC(=O)[C@H](C)NC(=O)[C@H](C)NC(=O)[C@H](CCC(N)=O)NC(=O)[C@H](CCC(=O)O)NC(=O)[C@H](CCC(=O)O)NC(=O)[C@H](CC(C)C)NC(=O)[C@H](Cc1ccc(O)cc1)NC(=O)[C@H](CO)NC(=O)[C@H](CO)NC(=O)[C@@H](NC(=O)[C@H](CC(=O)O)NC(=O)[C@H](CO)NC(=O)[C@@H](NC(=O)[C@H](Cc1ccccc1)NC(=O)[C@@H](NC(=O)CNC(=O)[C@H](CCC(=O)O)NC(=O)[C@H](CO)NC(=O)[C@@H](N)Cc1c[nH]cn1)[C@@H](C)O)[C@@H](C)O)C(C)C)C(=O)N[C@@H](CCCCNC(=O)COCCOCCNC(=O)COCCOCCNC(=O)CC[C@H](NC(=O)CCCCCCCCCCCCCCCCC(=O)O)C(=O)O)C(=O)N[C@@H](Cc1c[nH]c2ccccc12)C(=O)N[C@@H](CC(C)C)C(=O)N[C@H](C(=O)N[C@@H](CCCNC(=N)N)C(=O)NCC(=O)N[C@@H](CCCNC(=N)N)C(=O)NCC(=O)O)C(C)C [M17, N-ε^30-[2-(2-[2-(2-[2-(2-[4-(17-carboxyheptadecanoylamino)-4(s)-carboxybutyrylamino]ethoxy)ethoxy]acetylamino)ethoxy]ethoxy)acetyl](Ser^8Glu^22Lys^30Arg^26,34-GLP-1(7-37)) peptide] (H-HSEGTFTSDVSSYLEEQAAREFIK([AEEA-AEEA-γGlu-C18 diacid])WLVRGRG-OH; N-terminus and C-terminus assumed)
in vitro activities (comparison in words) (GLP1R): comparable
glucose-lowing effect compared with Semaglutide (FIG. 1) (db/db mice; day 2): lower than that of Semaglutide
